{"source": "patent US20090325858A1", "about": "“Reduction of Zinc-Induced Neurotoxic Injury By Blockade of Nitric Oxide Synthesis” (ANDRO DIAGNOSTICS, INC., priority 2003, published 2009)", "key": {"[1]": {"target": "Zn^2+-bound CA (bovine CA I)", "conditions": "cited from earlier work"}, "hippocampal slice": {"tested_on": "hippocampal slice", "assay": "Zn2+ release from hippocampal slice in oxygen-glucose deprivation (OGD) and reperfusion, Newport Green", "format": "cell-based, rat", "conditions": "slices pretreated, 1 mM", "source_text": "In the in vitro model, the ischemia was translated to the hippocampal slice using the established oxygen-glucose deprivation (OGD) paradigm. Zinc in the extracellular fluids of the slice was monitored using membrane impermeable Newport Green as a sensor for Zn^2+ in the extracellular fluid as described herein. The release results paralleled the results obtained in vivo from the rabbits. Zinc was released into the extracellular fluid at the onset of OGD, then even more release was observed during reperfusion (FIG. 8)."}, "[2]": {"tested_on": "zinc-positive neurons in hilus and hippocampal cortex (CA3)", "assay": "Traumatic brain injury plus hypoperfusion, number of zinc-stained neurons", "format": "in vivo, rat", "conditions": "for sparing in the number of zinc-injured (zinc-positive) neurons: trauma plus hypoperfusion", "source_text": "Male Sprague-Dawley rats weighing 350-400 g were anesthetized with isoflurane in an anesthetic chamber, intubated, and mechanically ventilated with 1.5-2.0% isoflurane in O2:room air (70:30) using a volume ventilator (EDCO Scientific, Chapel Hill, N.C.). Polyethylene cannulae were placed in both femoral arteries and one femoral vein for arterial pressure monitoring and hemorrhage and for drug infusion, respectively. Rectal and temporalis muscle temperatures were monitored using telethermometers (Yellow Springs Instruments, Yellow Springs, Ohio). Rectal temperature was maintained using a thermostatically controlled water blanket (Gaymar, Orchard Park, N.Y.).\nRats were prepared for parasagittal fluid-percussion traumatic brain injury (TBI) and for laser Doppler flowometry as described below. Intracranial pressure (ICP) was monitored continuously using a Camino probe (V420, Camino Laboratories, San Diego, Calif.) placed in a lateral ventricle through a small craniotomy placed posterior and lateral to the fluid percussion injury site. Isoflurane was lowered to 1.5%; the rats were connected to the trauma device, and subjected to moderate or severe traumatic brain injury.\nAfter traumatic brain injury (or sham-TBI) blood was withdrawn from a catheter in a femoral artery to reduce MAP to 60 mmHg. Mean arterial pressure was maintained at 60 mmHg for 45 minutes during which time cerebral blood flow and ICP were measured. […] Post-resuscitation measurements were then performed. An arterial blood sample was withdrawn with each measurement series to determine PaCO2, PaO2, pH and hemoglobin concentration or hematocrit.\nFluid-percussion traumatic brain injury is a clinically relevant model that has been used in many studies of traumatic brain injury in cats, rats, and pigs (79, 82). The trauma device consists of a Plexiglas cylinder 60 cm long and 4.5 cm in diameter. One end of the device is connected to a hollow metal cylinder housing a pressure transducer (Statham PA856-100) and the other end is closed by a Plexiglas piston mounted on O-rings.\nThe piston is struck by a 4.8-kg steel pendulum dropped from a variable height, which determines the intensity of injury. The pressure pulse is recorded on a storage oscilloscope triggered photoelectrically by the descent of the pendulum. Sham-injured rats were connected to the trauma device but were not injured.\nThe effects of a moderate (2.0 atm) or severe (3.0 atm) levels of injury were studied. Moderate injury (2.1 atm) is associated with 10% mortality, reductions in EEG amplitude for 10 to 15 min, brief (<5 min) suppression of reflexes (corneal, pinna, paw flexion to pinch, righting), and return of spontaneous locomotion within 10 min. […]"}, "zinc-positive neurons": {"tested_on": "zinc-positive neurons", "assay": "Pilocarpine-induced seizures, number of zinc-positive neurons", "format": "in vivo"}, "hippocampal brain slice": {"tested_on": "hippocampal brain slice", "assay": "Zn2+ release into extracellular fluid of acute hippocampal brain slices, EnZin fluorescence", "format": "cell-based, rat", "conditions": "immediately after adding to hippocampal slice bath", "description": "Experiments were performed on transverse hippocampal splices taken from 5 to 6 week-old male rats. In all, 41 hippocampal slices and 10 additional hippocampi taken directly from intact animals (“freshly frozen” see below) were studied quantitatively. After halothane (3.5%) inhalation in the anesthetic box, the rats were perfused with 4° C. artificial cerebrospinal fluid (ACSF) (NaCl was substituted by 190 mM sucrose) intracardially for 1 minute (76-77).\nAfter perfusion, the rats were decapitated and the hippocampi were dissected out and placed in cold (4° C.) artificial cerebrospinal fluid. Transverse slice (400 μm) were cut with a vibratome (Campden Vibraslice, model # 752) and placed on a nylon mesh in an incubation chamber. […] The slices were kept at 20° C. in oxygenated (95% O2, 5% CO2) artificial cerebrospinal fluid for 30 minute before stimulation. The gas mixture was also bubbled through the water bath in the chamber and vented over the chamber for >30 minute before the experiment started. The standard artificial cerebrospinal fluid comprised 130 mM NaCl, 3.5 mM KCl, 1.25 mM NaH2PO4, 2 mM MgSO4, 2 mM CaCl2, 20 mM NaHCO3, 2 mM ascorbic acid and 10 mM D-glucose.\nFor measuring zinc release with EnZin, (apoCA+ABDN), the slices were epi-illuminated with 420 nm light and imaged through both 530 nm and 700 nm band pass filters. […] The ABDN is fluorescent at 600 nm when free, but fluoresces at 560 nm when bound to the Zn+CA (“holo” CA). Thus, the CA is the zinc detector, and the ABDN is the ratiometric fluorescent reporter. A variety of CA with different zinc affinities for different zinc measurement ranges can be generated (78).\nThe ratio of the 520/700 nm images were then calculated (Optimus), giving a ratiometric image of zinc concentration. In this fluorescence system, the affinity of the EnZin is so high (Kd=[…]) that it can be treated as infinite. With a stoichiometric excess of EnZin, the percent occupancy of the EnZin by Zn^2+ can be used as the modulator of fluorescence intensity. […]"}, "[3]": {"tested_on": "vesicular zinc in axonal boutons of the hippocampal formation", "conditions": "for vesicular zinc staining of boutons (qualitative): TSQ staining, 2 hr after infusion, hippocampal formation", "protocol": "Adult Sprague-Dawley rats (male, 300-350 g) were anesthetized with halothane, and mounted in a stereotaxic instrument where a bone defect was opened after reflection of the scalp.\nFor measuring the normal concentration of vesicular zinc in the tissue after treatment with various nitric oxide generators, frozen tissue sections were cut in a closed-top cryostat at 30 μm (−14° C.). For whole brains, starting at 3.6 mm caudal to bregma, every 3rd section was saved until 5-10 sections were obtained. For tissue slices studied in vitro, every section was saved (typically 6-9 per brain slice). After cutting, the sections were thawed onto glass slides, dried, then stained with TSQ (80-82).\nThe sections were stained with TSQ, ((N-(6-methoxy-8-quinolyl)-para-1-toluenesulfonamide, Molecular Probes), as described previously (80) for fluorescence visualization of Zn^2+. Briefly, the frozen, unfixed sections were immersed in a solution of TSQ (4.5 μM) in 140 mM sodium barbital and 140 mM sodium acetate buffer (pH 10-10.5) for 60 seconds, rinsed for 60 seconds in normal saline (NaCl, 0.9%), then viewed and imaged in the microscope with no coverslip while still damp. A SPOT2 cooled CCD camera was used to capture the fluorescence images (10×n.a. 0.65) at 12 bit resolution for subsequent quantitation of zinc-TSQ fluorescence intensity. Control and treated tissues were always digitized in the same sitting to guard against sensitivity changes in the system.\nRats were anesthetized, a microsyringe and needle were lowered into the hippocampal formation or neocerebellar cortex by stereotaxis and then nitric oxide generators were infused into the tissue. After 120 minutes of survival, the rats were sacrificed and the brains were cut and stained to show the location and concentration of the weakly bound Zn^2+ that is normally sequestered in the presynaptic boutons, i.e., vesicular zinc. Zinc localization and quantification were determined by TSQ fluorescence staining."}}, "note": "Entries after “also recorded” stand apart in the source; their conditions may differ.", "data": [{"smiles": "NS(=O)(=O)c1ccc(NCCO)c2nonc12", "note": "[ABDN]", "values": [{"measurement": "Kd", "setting": "[1]", "result": 45, "unit": "µM"}]}, {"smiles": "COC(=O)[C@@H](N)CCCNC(=N)N[N+](=O)[O-]", "note": "[L-NAME, N(6)-nitro-L-arginine methyl ester]", "values": [{"measurement": "Zn^2+ release into extracellular fluid after OGD and reperfusion", "setting": "hippocampal slice", "result": "almost completely blocked"}, {"measurement": "number of zinc-stained cells (qualitative)", "setting": "[2]; TBI plus hypoperfusion, prior administration", "result": "substantial reduction; also recorded: greatly reduces"}, {"measurement": "number of zinc-positive neurons after excitotoxic insult (qualitative)", "setting": "[2]; blunt-trauma", "result": "dramatically reduces"}, {"measurement": "sparing in the number of zinc-injured (zinc-positive) neurons", "setting": "[2]; hilus", "result": 50, "unit": "%"}, {"measurement": "sparing in the number of zinc-injured (zinc-positive) neurons", "setting": "[2]; hippocampal cortex (CA3)", "result": 50, "unit": "%"}, {"measurement": "number of zinc-positive neurons after excitotoxic insult (qualitative)", "setting": "zinc-positive neurons", "result": "dramatically reduces"}]}, {"smiles": "CC(=O)N[C@H](C(=O)O)C(C)(C)SN=O", "note": "[SNAP, S-nitroso-N-acetyl-L-penicillamine]", "values": [{"measurement": "Zn^2+ fluorescence in the slice bath / extracellular fluid", "setting": "hippocampal brain slice", "result": "rapid (within seconds) increase; also recorded: raised"}]}, {"smiles": "NCCCNCCCCN(CCCN)/[N+]([O-])=N/O", "note": "[Spermine NO, Spermine-NONOate]", "values": [{"measurement": "Zn^2+ fluorescence in the slice bath / extracellular fluid", "setting": "hippocampal brain slice", "result": "rapid (within seconds) increase"}, {"measurement": "vesicular zinc staining of boutons (qualitative)", "setting": "[3]", "result": "depletes zinc"}, {"measurement": "vesicular zinc in the hilus reduced compared to control", "setting": "[3]; quantitative microfluorimetric analysis, hilus, in vivo infusion", "result": "about 60%"}]}, {"smiles": "NCCCNCCCCNCCCN", "note": "[Spermine]", "values": [{"measurement": "Zn^2+ fluorescence in the slice bath / extracellular fluid", "setting": "hippocampal brain slice", "result": "no effect"}, {"measurement": "vesicular zinc staining of boutons (qualitative)", "setting": "[3]", "result": "unaffected"}]}]}
